Laboratory results published in PubChem BioAssay (NCI).
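How tested: cells in 96-well plates exposed to compound for 48 hours at five concentrations. TGI: total growth inhibition.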

How the values were obtained:
Experiment in all cases: DTP human tumour cell line panel, 48 h
[1] = tested on: KM12 colon
[2] = tested on: IGROV1 ovarian
[3] = tested on: NCI-H226 lung
[4] = tested on: SN12C renal
[5] = tested on: TK-10 renal
[6] = tested on: T-47D breast
[7] = tested on: HL-60(TB) leukemia
[8] = tested on: BT-549 breast
[9] = tested on: CAKI-1 renal
[10] = tested on: SK-MEL-28 melanoma
[11] = tested on: M14 melanoma
[12] = tested on: EKVX NSCLC
[13] = tested on: MDA-MB-231 breast
[14] = tested on: RXF 393 renal
[15] = tested on: HOP-92 NSCLC
[16] = tested on: SK-MEL-2 melanoma

Compound	TGI [1] [µM]	TGI [2] [µM]	TGI [3] [µM]	TGI [4] [µM]	TGI [5] [µM]	TGI [6] [µM]	TGI [7] [µM]	TGI [8] [µM]	TGI [9] [µM]	TGI [10] [µM]	TGI [11] [µM]	TGI [12] [µM]	TGI [13] [µM]	TGI [14] [µM]	TGI [15] [µM]	TGI [16] [µM]
Cc1ccc(-n2[nH]nc(C(N)=O)c2=O)cc1	> 100	> 100	> 100	> 100	> 100	> 100	> 100	> 100	> 100	> 100	> 100	> 100	> 100	> 100		
CNC1(c2cc3ccccc3s2)CCCCC1	43.1	84.6	91.3	> 100	> 100			> 100	> 100		35.7	93.8	71.8	67.1	61.6	
CCCCCCNCCc1cnc[nH]1	> 100	> 100	> 100	> 100		> 100			> 100	> 100	> 100	> 100	> 100	> 100	> 100	> 100
COc1cc2c(cc1OCCCCCCCCCCN1C(=O)c3cccc4cccc(c34)C1=O)N=C[C@@H]1CCCN1C2=O	50.2	18.4	5.25	18.3	> 100	> 100	43.2	20.9	28.9	33	54.6	14.4	20.4	10.1		20.3
N#C[S-].[La+3].c1cnc2c(c1)ccc1cccnc12.c1cnc2c(c1)ccc1cccnc12.c1cnc2c(c1)ccc1cccnc12	22.6	19.2	4.63	16	25.4		2.47		12.7	33.9	3.57	15.5			18	
CC1(C)C2CCC1(C)C(N/C(Sc1ccccc1)=C(/C(Cl)=C(Cl)Cl)[N+](=O)[O-])C2 (centres undefined)	18.8		31.1	31		31.2		28.8	28.5	24.9	25.9	57.8	22			25
CSc1c(C(=O)Nc2ccccc2)c(N)n(N)c(=O)c1C#N	> 100	> 100	> 100	> 100	> 100	> 100	> 100	> 100	> 100	> 100	> 100	> 100	> 100	> 100		> 100
O=C1COc2cc(NC(=S)Nc3ccccc3)ccc2N1	> 100	> 100	> 100	> 100	> 100		> 100		> 100	> 100	> 100	> 100		> 100	> 100	> 100
C=C(CCOC)CCC1CCCCC(CN(C)C)C1=O (centres undefined)	> 100	> 100	> 100	> 100		> 100	> 100	> 100	> 100	> 100	> 100	> 100	> 100	> 100		> 100
COc1cc2c(cc1O)c(O)cc1c3cc(OC)c(OC)cc3c[n+](C)c21	> 100		> 25.6		> 100	> 80.3		> 100	> 100	> 100	> 100	> 100	> 67.9	> 100		> 100
Nc1ccccc1CCN1CCN(CCCc2ccccc2)CC1	> 100	> 100	> 100	> 100	> 100	53.3	> 100	> 100	> 100	> 100	35.4	> 100	> 100			> 100
Clc1ccc(CCN(CCc2ccc(Cl)c(Cl)c2)CCN2CCCC2)cc1Cl	3.04	2.93	4.07		3.17	12.3	3.25	3.65	3.02		3.1	4.4	2.91	3.33		3.04
CCC(CC)NC1=C(NC(C)=O)C(=O)c2ccccc2C1=O	> 50	> 50	> 50	> 50	> 50		> 50			> 50	> 50	> 50		> 50	> 50	> 50
S=C(N/N=C/c1ccccn1)N1CCCCC1	> 100		6.97	1.96	> 100		0.264	32.5	> 100	> 100	1.36	17.4		3.94	> 100	18.1
O=C1/C(=C\c2ccc([N+](=O)[O-])cc2)N(S(=O)(=O)c2ccccc2)c2ncccc21	44.3	36.8	83.5	50.2	31.9	35	5.4	32.7	20.9	41.8	41.2		38.4	37		
CC1(C)OCN(c2ccc(N3CCOCC3)cc2)Cn2c1nc1ccccc12	> 100	> 100	> 100	> 100	> 100		72.9			> 100	> 100	> 100		> 100	> 100	> 100
CC(C)(C)C1=C(Br)C(C(C)(C)C)OP1(=O)O (centres undefined)	> 100	> 100	> 100	> 100	> 100	> 100	> 100		> 100	> 100	> 100	> 100			> 100	> 100

Compound	TGI [1] [µM]	TGI [2] [µM]	TGI [3] [µM]	TGI [4] [µM]	TGI [5] [µM]	TGI [6] [µM]	TGI [7] [µM]	TGI [8] [µM]	TGI [9] [µM]	TGI [10] [µM]	TGI [11] [µM]	TGI [12] [µM]	TGI [13] [µM]	TGI [14] [µM]	TGI [15] [µM]	TGI [16] [µM]
ONC1=Nc2cc(Cl)ccc2C(=S)N2CSCC12 (centres undefined)	> 100	> 100	> 100	> 100	> 100	> 100		> 100	> 100	> 100	> 100	> 100	> 100	> 100		> 100
C=CC[C@]1(/C=N/O)CN(S(=O)(=O)CC[Si](C)(C)C)C[C@H]2CC=CC[C@H]21	51.5	34.8	34.4	30	36.8	> 100		80.7	42.8	54.7	45	58.5	44.2	29.6		32.6
CC1(c2cccc(C3CC4(CCC3=O)OCCCCO4)c2)OCCO1 (centres undefined)	> 100	> 100	> 100	> 100	> 100		> 100		> 100	> 100	> 100					> 100
CC(C)(C)C1CCC(=O)/C(=C/CC2CC(=O)N(c3ccccc3)C(=O)C2)C1 (centres undefined)	33.6	44.5	32	41.3	31.8	48.6	94.1	44.5	41.6	47.4		60.2	> 100			42.9
CC(=O)SCCC(NC(=S)Nc1ccccc1)P(=O)(Oc1ccccc1)Oc1ccccc1 (centres undefined)	> 100	> 100	> 100	> 100	> 100	> 100	> 100		> 100	> 100	> 100	> 100	> 100	> 100	> 100	
CCCCC1(NN=C2CCCCC2)C(=O)N(c2ccccc2)N(c2ccccc2)C1=O	> 100	> 100		> 100	> 100	> 100	38.4	> 100	> 100	> 100	> 100	> 100	> 100	> 100		
Cc1ccc(C(=O)O)c(/C=C2\Cc3ccc(C)cc3C2=O)c1	> 100	> 100	85.2	> 100	> 100	> 100	98.6	> 100	> 100	> 100	> 100	> 100		> 100	> 100	> 100
CCOC1C(Br)Cn2c(=O)c3cc4ccccc4cc3c(=O)n2C1C (centres undefined)	> 100	> 100	> 100	> 100	> 100		> 100		> 100	> 100	> 100	> 100		> 100	> 100	> 100
CN(/N=C/c1ccc(C(=O)O)cc1)C1=NCCCCN1	> 100	> 100	> 100	> 100		> 100	> 100	> 100	> 100	> 100	> 100	> 100	> 100			
O=C1NC(=S)N/C1=C\c1cccs1	> 100	> 100	> 100	> 100	> 100	> 100		> 100	> 100	> 100	> 100	> 100	> 100	> 100		> 100
N[C@@H]1CCN(c2c(F)cc3c(=O)c(C(=O)O)cn4c3c2Oc2c-4ccc3c2ccc2ccccc23)C1	> 100	36.3	> 100	> 100	40		> 100	> 100	> 100	> 100	> 100	> 100		> 100	61.7	> 100
CCN1C[C@]2(C)CC[C@H](O)C34C1C(C[C@@H]32)[C@@]1(O)CC[C@H]2C[C@@H]4[C@@H]1[C@H]2O	> 100	> 100		> 100	> 100		> 100		> 100	> 100	> 100			> 100	> 100	> 100
N#Cc1c(-c2ccc(Cl)cc2)c2c(n(C3OC(CO)C(O)C(O)C3O)c1=S)CCCC2 (centres undefined)	> 100	> 100	> 100	> 100	> 100		58.9	> 100	> 100	> 100	> 100	> 100	> 100		> 100	> 100
COc1cc(C=O)c(-c2c(C=O)ccc3c2OCO3)c(OC)c1OC	> 100	> 100	> 100	> 100	> 100		81.1		> 100	> 100	> 100	> 100				> 100
Cc1nc2ccc(Br)cc2c(=O)n1-c1nnc(C(C)(C)C)s1	> 10	> 10	> 10	> 10	> 10	> 10	> 10		> 10	> 10	> 10	> 10	> 10	> 10	> 10	> 10
COc1ccc(-c2c(C(C)=O)c(-c3ccccc3)n(C3OC(CO)C(O)C(O)C3O)c(=S)c2C#N)cc1 (centres undefined)	> 100	> 100	> 100	> 100	> 100	> 100	> 100		> 100	> 100	> 100	> 100	> 100	> 100		
O=C(NN1C(=O)C(Cl)C1c1ccc(Cl)cc1)c1c(Cl)c(Cl)c(Cl)c(Cl)c1-c1nc2ccccc2[nH]1 (centres undefined)	> 100	45.8	65.7	83.2		25	59.6	77.8	23.2	78.7	74.9	88.7		17.9	51.4	47.1
